Patent publication EP2266530A1, “Oxazolidinones for cosmetic cutaneous use” (Laboratoires Expanscience, priority 2002, dated 2004)

Columns and labels:
cellules de Langerhans = test: Migration of freshly isolated, DNSB-sensitised Langerhans cells through Matrigel in a two-compartment culture chamber; conditions: for inhibition de la migration des CL induite par le DNSB (result in words): compound 1 µM
Method: Des suspensions de cellules épidermiques ont été obtenues par traitement enzymatique (0,05% trypsine, pendant 18h à +4°C) de fragments de peau humaine normale issus de chirurgie plastique. Les suspensions obtenues contiennent en moyenne 2 à 4% de CL. L'obtention de suspensions contenant en moyenne 70% de CL est basée sur le principe de la centrifugation sur gradient de densité (Lymphoprep™) et élimination des kératinocytes.
Le milieu de base choisi pour l'ensemble de l'étude a été le RPMI 1640 (Gibco BRL, France).
On a utilisé comme agent sensibilisateur le DNSB (Sigma Aldrich), forme soluble du DNCB (dinitro-chloro-benzène), solubilisé en RPMI-BSA et utilisé à la concentration de 50 µM.
Un système de chambre de culture à deux compartiments (Falcon, Becton Dickinson, France) a été utilisé. Le compartiment supérieur est séparé du compartiment inférieur par une membrane de porosité 8 µm, sur laquelle sont déposées 50 µg/cm^2 de Matrigel. La membrane est alors recouverte de protéines formant un film équivalent à une membrane basale (laminine, collagène IV, nidogène, entactine, héparane sulfate protéoglycanes). Les cellules reprises dans le milieu RPMI-BSA seul ou en présence des différents produits sont déposées dans le compartiment supérieur. Dans le compartiment inférieur, est ajouté du surnageant de culture de fibroblastes humains normaux. Après 18h d'incubation à 37°C, le nombre de cellules vivantes ayant traversé le Matrigel et se trouvant dans le compartiment inférieur est compté sous microscope (les CL sont facilement identifiables par leur forme dendritique). Chaque essai est réalisé en triplicate.
Dans l'expression des résultats, la capacité migratoire des CL contrôle (non traitées et non sensibilisées) est arbitrairement fixée à 1.

cellules dendritiques = test: FITC-induced migration of dendritic cells from ear skin to draining lymph nodes in mice (flow cytometry); assay type: in vivo, souris
Source text: Le FITC (Fluorescéine isothiocyanate, Sigma, St. Louis, MO) a été dilué extemporanément dans un mélange acétone : dibutylphthalate (1:1).
L'oxazolidinone B et le LU105 (LU 105 est un inhibiteur de MMPs, correspondant à un extrait peptidique de lupin blanc commercialisé par la Société Expanscience sous le nom de marque Actimp 193®) ont été fournis par les "Laboratoires Expanscience", et formulés seuls ou en association dans un véhicule inerte compatible avec une application topique, tel que décrit à l'exemple 1 ci-dessus [oxazolidinone B (0,5%) ± LU105 (2%)]. Les différentes formulations ont été appliquées sur les oreilles de souris deux fois par jour pendant 4 jours consécutifs. Trois heures après la dernière application, 1,5% de FITC sont appliqués sur les deux oreilles (l'une traitée et l'autre non traitée (Contrôle)).
L'effet des deux molécules a été évalué in vivo chez la souris. La peau des deux oreilles est badigeonnée avec 1,5% FITC (2X5 µl). 24 h après, les souris sont sacrifiées et une suspension cellulaire est préparée à partir des ganglions auriculaires et cervicaux (ganglions drainants, ci-après dénommés GL) ou à partir des ganglions popliteaux (ganglions non drainants, contrôle négatif). Les tissus ont été découpés et les cellules sont séparées par filtration (filtre […], Falcon; Becton Dickinson), puis lavés. […]

SMILES: O=[N+]([O-])c1ccc(S(=O)(=O)O)c([N+](=O)[O-])c1 [DNSB, reference compound]
- stimulation de la migration des CL par rapport aux cellules contrôle (cellules de Langerhans; Example 3, DNSB 50 µM alone): +113%
- Index de migration (cellules de Langerhans; Example 4, cells sensitised with DNSB alone, control cells = 1): 1,78

SMILES: CCCCCCCCCCCCC1COC(=O)N1 (centres unmarked) [oxazolidinone A, 4-dodécyl-oxazolidin-2-one]
- inhibition de la migration des CL induite par le DNSB (result in words) (cellules de Langerhans; Example 3): inhibent de manière significative

SMILES: CCCCCCCCCCCCC1NC(=O)OC1CCCCCCCCCCCC (centres unmarked) [oxazolidinone B, 4,5-didodécyl-oxazolidin-2-one]
- Inhibition de la migration en % (cellules dendritiques; 0,5% topical on mouse ears, twice daily for 4 days, FITC 1,5%, read 24 h later): 28%
- inhibition de la migration des CD vers les GL (result in words) (cellules dendritiques; mice sensitised with FITC, oxazolidinone B alone): inhibe de manière significative
- inhibition de la migration des CL induite par le DNSB (result in words) (cellules de Langerhans; Example 3): inhibent de manière significative
- inhibition de la migration des CL sensibilisées (result in words) (cellules de Langerhans; Example 4, tested separately): inhibent de manière significative

SMILES: CCCCCCCCCCCCC1COC(=O)N1CCCCCCCCCCCC (centres unmarked) [oxazolidinone C, 3,4-didodécyl-oxazolidin-2-one]
- inhibition de la migration des CL induite par le DNSB (result in words) (cellules de Langerhans; Example 3): inhibent de manière significative
